The numbers were not newly measured in patent publication US9206171B2, “6-{2 -[1-(6-methyl-3-pyridazinyl)-4-piperidinyl]ethoxy}-3-ethoxy-1,2-benzisoxazole bis-dihydrogenphosphate salt (1:2)” (Biota Scientific Management Pty Ltd, priority 2008, dated 2015), which cites them from elsewhere.

For series [1] the following is noted: facile endogenous cleavage of the ester moiety, regardless of excipient.
For series [2] the following is noted: patients using oral contraceptive formulations.

Regarding `CCOC(=O)c1ccc(OCCC2CCN(c3ccc(C)nn3)CC2)cc1` [Pirodavir, 4-[2-[1-(6-methyl-3-pyridazinyl)-4-piperidinyl]-ethoxy]benzoate], the “aqueous solubility (in words)” value was “poor aqueous solubility”. Moreover, the “bioavailability (in words)” value in series [1] is on record as “poor bioavailability”.
In the case of `Cc1cc(CCCOc2c(C)cc(-c3noc(C(F)(F)F)n3)cc2C)on1` [Pleconaril], the “interaction with oral contraceptive formulations” value in series [2] was “interact adversely”.
